Measurements from patent publication US20250250227A1, “AMINO LIPID COMPOUND, PREPARATION METHOD THEREFOR, COMPOSITION THEREOF AND USE THEREOF” (SHENZHEN SHENXIN BIOTECHNOLOGY CO., LTD., priority 2022, published 2025).

Columns and labels:
Female BALB/c mice [1] = test: IFN-γ Elispot cellular immunity test, spleen lymphocytes of mice immunized with IN002.5.1 mRNA LNP; assay type: in vivo; conditions: 50 μL IM, spleen on 7th day after immunization, FIG. 2-4
Description: An IN002.5.1 mRNA-encapsulating lipid nanoparticle formulation was prepared according to the method as described in Experimental Example 1, with replacing the luciferase mRNA (Fluc mRNA) with IN002.5.1 mRNA, with a concentration of IN002.5.1 mRNA of 0.2 g/L, a mass ratio of IN002.5.1 mRNA to Lipid of 1:10, a particle size of 80-130 nm, and an encapsulation efficiency of 90% or higher.
The sequence of IN002.5.1 mRNA is one obtained by replacing all uracil (u) in SEQ ID NO. 1 with N1-methylpseudouridine. Of note is that the t (thymine) in the RNA sequence, SEQ ID NO. 1, in the Sequence Listing is actually u (uracil), according to the WIPO Standard ST. 26 for nucleotide or amino acid sequence listing.
(§1) Animal preparation: Female BALB/c mice of 6-8 weeks old were selected and raised in an SPF grade breeding room. Animal testing was conducted in strict accordance with the guidelines of national health institutions and animal ethics requirements.
Immunization of mice: Prior to injection of the test LNP formulations, the LNP formulations were gently and repeatedly inverted to thoroughly mix the formulation samples. A corresponding amount of the formulation samples were aspirated with a 1 ml insulin syringe, and the LNP formulations were injected by intramuscular injection (IM) […], with 8 mice per formulation. Each mouse was injected with 50 μL of the IN002.5.1 mRNA encapsulating lipid nanoparticle formulation.
Spleen acquisition: On the 7th day after immunization, 3 to 4 mice from each LNP immunization group were selected and euthanized, and their spleens were acquired in a super clean bench.
Isolation of lymphocytes: The spleens of mice were taken out in a super clean bench. 7 mL of mouse lymphocyte separation solution was added to a 6-well cell culture plate. Mouse spleen cells were ground with a syringe piston, and the suspension of the spleen cells was filtered through a cell screen and immediately transferred to a 15 mL centrifuge tube. […] RPMI 1640 medium was slowly added with keeping the liquid interface distinct. After centrifugation at 800 g with a horizontal rotor at room temperature for 30 minutes, a clear stratification can be visible. The lymphocyte layer was aspirated, then added with 10 mL RPMI 1640 medium, and inverted for washing. The cells were collected by centrifugation at 250 g for 10 min at room temperature, and the red blood cells were lysed. After completing lysis of red blood cells, the supernatant was poured, and the cells were resuspended in culture medium and counted.
Addition of stimulant and culture of lymphocyte: RPMI-1640 medium containing 10% fetal bovine serum was used to activate the pre-coated plate. After standing at room temperature for at least 30 min, the medium was removed, and a cell suspension at adjusted concentration was added ([…]). The medium used to resuspend the cells was used as a background negative control. 10 μL positive stimulant working solution (PMA+Ionomycin (dissolved in DPBS) was added to a positive control well; […] medium used to resuspend the cells was added to a negative control well; 10 µL/well of a peptide library diluted with RPMI 1640 was added to experimental wells. After all samples and the stimulant were added, the plate was covered, incubated in an incubator with 5% CO2 at 37° C. for 16-24 h.
Elispot detection after culture: The cells and the culture medium in the wells were dumped, and the wells were lysed with 200 μL/well of ice-cold deionized water at 4° C. for 10 min. The liquid in the wells were shaken out, and the wells were washed five times with PBS buffer. The wells were incubated with 100 μL/well of 1 μg/ml detection antibody for 2 h at room temperature; and after washing the plate 5 times with PBS, the wells were incubated with 100 μL/well of 1000-fold diluted enzyme labeled avidin (Streptavidin-HRP) for 1 h at room temperature. […]

Female BALB/c mice [2] = test: In vivo safety of hEPO mRNA lipid nanoparticle: serum alanine aminotransferase (ALT) enzyme activity; conditions: hEPO mRNA LNP, 300 μL IV, serum 12 h after injection; FIG. 1
Description: A human erythropoietin mRNA (hEPO mRNA)-encapsulating lipid nanoparticle formulation was prepared according to the method as described in Experimental Example 1, with replacing the luciferase mRNA (Fluc mRNA) with human erythropoietin mRNA (hEPO mRNA), with a concentration of hEPO mRNA of 0.2 g/L, a mass ratio of hEPO mRNA to Lipid of 1:10, a particle size of 90-130 nm, and an encapsulation efficiency of above 90% or higher.
as §1
In vivo Delivery: Prior to injection of the test LNP formulations, the LNP formulations were gently and repeatedly inverted to thoroughly mix the formulation samples. A corresponding amount of the formulation samples were aspirated with a 1 ml insulin syringe, and the LNP formulations were injected by tail vein injection (IV), with 5 mice per formulation. Each mouse was injected with 300 μL of the human erythropoietin mRNA (hEPO mRNA)-encapsulating lipid nanoparticle formulation.
Serum acquisition: Blood samples of mice were collected 12 h after injection, placed in tubes without anticoagulants, and naturally coagulated at room temperature for 30-60 min, and then centrifuged at a speed of 3500 rpm for 10 min to obtain the supernatant, which was the serum.
The detection of alanine transaminase was carried out according to instructions of the kit (Nanjing Jiancheng Bioengineering Institute, Catalog. No. C009-2-1), and a standard curve was made using the standard provided in the kit. D-PBS was used in the experiment, which was purchased from Sangon Biotech (Shanghai) Co., Ltd., Catalog No. E607009-0600.
The method of detection of enzyme activity of alanine aminotransferase (ALT) in serum of the mice is as follows:
• (1) Enzymatic reaction: 0, 2, 4, 6, 8 and 10 μL of […] sodium pyruvate standard solution were sequentially added to 5 μL of 0.1 mol/L phosphate buffer, and the volume was supplemented to 25 μL with a matrix solution, and repeatedly aspirating and spitting with a pipette for mixing well; • (2) Addition reaction: 20 μL 2,4-dinitrophenylhydrazine solution was added to all reaction wells in (1), mixed by aspirating and spitting, and then placed in an incubator at 37° C. to react for 20 min; • (3) Developing: 200 μL of 0.4 mol/L NaOH solution was added to all reaction wells in (2) to stop the reaction, mixed by aspirating and spitting, and incubated at room temperature for 15 min. The OD value of each well was measured at 510 nm in a microplate reader; and • (4) Data processing of standard curve: The corresponding absolute OD value for each well was obtained by subtracting the OD value for 0 μL well from the measured OD value for each well, the corresponding ALT Karmen units being 0, 28, 57, 97, 150 and 200 U/L, respectively. The standard curve was obtain by taking the absolute OD value as the abscissa and the corresponding Karmen unit as the ordinate.
• (1) Reagent preparation: an ALT matrix solution was placed in an incubator at 37° C. for preheating; • (2) Enzymatic reaction: 5 μL diluted serum was aspirated and added to a 96-well plate, then 20 μL matrix solution was added to the corresponding sample well and mixed by repeatedly aspirating and spitting to avoid bubbling, and then placed in an incubator at 37° C. for 30 min; • (3) Addition reaction: 20 μL 2,4-dinitrophenylhydrazine was added to all reaction wells in (2), mixed by aspirating and spitting, and then reacted in an incubator at 37° C. for 20 min; • (4) Developing: 200 μL of 0.4 mol/L NaOH solution was added to all reaction wells in (3) to stop the reaction, mixed by aspirating and spitting, and then incubated at room temperature for 15 min. […]

[3] = Preparation and characterisation of mRNA-encapsulating lipid nanoparticle (encapsulation efficiency, particle size); assay type: physicochemical; conditions: LNP encapsulating Fluc mRNA; Lipid:DSPC:CHO-HP:M-DMG-2000 48:10:40.5:1.5
Description: A specified amount of Fluc mRNA stock solution, 0.2 M sodium acetate buffer, and DEPC water were added to a container, and mixed well to obtain a water phase;
The amino lipid compound of the present disclosure, a helper lipid, a structural lipid, and a PEG-lipid were separately dissolved in absolute ethanol to prepare respective solutions at concentrations of 20 mg/mL, 10 mg/mL, 20 mg/mL, and 25 mg/mL, respectively. The above four solutions were pipetted at a molar ratio of Lipid:DSPC:CHO—HP:M-DMG-2000 of 48:10:40.5:1.5, and mixed well to prepare an alcohol phase. • (2) Encapsulation: The water phase and the alcohol phase were injected into a microfluidic chip at a flow rate of water phase: alcohol phase=12 mL/min: 4 mL/min by using a microfluidic preparation instrument (MPE-L2), and encapsulation was carried out at a flow rate of water phase: alcohol phase=9 mL/min: 3 mL/min to obtain mRNA-encapsulating lipid nanoparticle (mRNA-LNP). • (3) Dialysis: The product of step (2) was loaded in a dialysis bag and placed in a Tris Buffer-8% sucrose solution for replacement to remove ingredients such as residual ethanol, unassembled lipids. Dialysis was conducted for 2 h with magnetic stirring at room temperature and under protection from light (dialysate was replaced every 1 hour). • (4) The product of step (3) was sterilized by passing through a […] microporous membrane, and then packaged.
Lipid nanoparticle formulations encapsulating Fluc mRNA were prepared, with a concentration of Fluc mRNA of 0.2 g/L, a mass ratio of Fluc mRNA to Lipid of 1:10, a particle size of 80-130 nm, and a encapsulation efficiency of 85% or higher.
The encapsulation efficiency of the lipid nanoparticle encapsulating luciferase mRNA (Fluc mRNA) with a representative amino lipid compound and the fluorescence expression intensity induced by the same are shown in Table 4, with the amino lipid compound 118 as a control. […]

Female BALB/c mice [4] = test: Performance evaluation of in vivo delivery of Fluc mRNA lipid nanoparticle (IVIS, body and organs); conditions: Fluc mRNA LNP; for Liver (fluorescence expression intensity) / Spleen (fluorescence expression intensity): 75 μL IV; for Liver (fluorescence expression intensity) / Spleen (fluorescence expression intensity) / Total flux (fluorescence expression intensity) / (Spleen/Total Flux) * 100%: 6 hours after injection; for Liver (fluorescence expression intensity) / Spleen (fluorescence expression intensity) / Total flux (fluorescence expression intensity): IVIS; for Total flux (fluorescence expression intensity): 75 μL tail vein injection (IV); for (Spleen/Total Flux) * 100% / Multiple of spleen delivery/total delivery to amino lipid compound 118: IV; for Multiple of spleen delivery/total delivery to amino lipid compound 118: relative to amino lipid compound 118
Description: as §1
In vivo Delivery: prior to injection of the test LNP formulations, the LNP formulations were gently and repeatedly inverted to thoroughly mix the formulation samples. A corresponding amount of the formulation samples were aspirated with a 1 ml insulin syringe, and the LNP formulations were injected by tail vein injection (IV), with 3 mice in duplicate per formulation. Each mouse was injected with 75 μL of the luciferase mRNA (Fluc mRNA)-encapsulating lipid nanoparticle formulation prepared in Experimental Example 1.
6 hours after injection of LNP formulations, mice were injected with 200 μL D-Luciferin luciferase developing substrate (Catalog No. 122799; Manufacturer: Perkin Elmer). After the substrate was injected, the mice were anesthetized with isoflurane inhalation, and the injection time of luciferase developing substrate was recorded.
The encapsulation efficiency of the lipid nanoparticle encapsulating luciferase mRNA (Fluc mRNA) with a representative amino lipid compound and the fluorescence expression intensity induced by the same are shown in Table 4, with the amino lipid compound 118 as a control.
The multiple of spleen delivery/total delivery of fluorescence expression intensity induced by lipid nanoparticle encapsulating luciferase mRNA (Fluc mRNA) with a representative amino lipid compound to amino lipid compound 118 is shown in Table 5.

Female BALB/c mice [5] = test: Humoral immunity test for total binding IgG antibody (ELISA, SARS-COV-2 antigen protein) in serum of immunized mice; assay type: in vivo; conditions: IN002.5.1 mRNA LNP, 50 μL IM, serum on 14th day after immunization; FIG. 5-6

CCCCCCC(CCCCCC)OC(=O)CCCCCCCCC(CCCCCCCCC(=O)OC(CCCCCC)CCCCCC)OC(=O)N(CCCC(=O)OC(C)C)CCCN(C)C [Compound 307]
Cellular immunity effect (IFN-γ Elispot) compared to ALC0315 (Female BALB/c mice [1]): better cellular immunity effect

CCCCCCC(CCCCCC)OC(=O)CCCCCCCCC(CCCCCCCCC(=O)OC(CCCCCC)CCCCCC)OC(=O)N(CCCCC(=O)OCCCC)CCCN(C)C [Compound 255]
ALT enzyme activity (Karmen unit) compared to ALC0315 and SM-102 (Female BALB/c mice [2]): significantly lower ALT enzyme activity

CCCCCCC(CCCCCC)OC(=O)CCCCCCCCC(CCCCCCCCC(=O)OC(CCCCCC)CCCCCC)OC(=O)N(CCCC(=O)OCCCC)CCCN(C)C [Compound 259]
ALT enzyme activity (Karmen unit) compared to ALC0315 and SM-102 (Female BALB/c mice [2]): significantly lower ALT enzyme activity | Encapsulation efficiency [3]: 94.08% | Liver (fluorescence expression intensity) (Female BALB/c mice [4]): 1.37E+08 | Spleen (fluorescence expression intensity) (Female BALB/c mice [4]): 1.29E+07 | Total flux (fluorescence expression intensity) (Female BALB/c mice [4]): 6.40E+08 | (Spleen/Total Flux) * 100% (Female BALB/c mice [4]): 2.02% | Multiple of spleen delivery/total delivery to amino lipid compound 118 (Female BALB/c mice [4]): 5.93

CCCCCCC(CCCCCC)OC(=O)CCCCCCCCC(CCCCCCCCC(=O)OC(CCCCCC)CCCCCC)OC(=O)N(CCCCCC(=O)OCCCC)CCCN(C)C [Compound 252]
ALT enzyme activity (Karmen unit) compared to ALC0315 and SM-102 (Female BALB/c mice [2]): significantly lower ALT enzyme activity

CCCCCCC(CCCCCC)OC(=O)CCCCCCCCC(CCCCCCCCC(=O)OC(CCCCCC)CCCCCC)OC(=O)N(CCCC(=O)OCCCCC)CCCN(C)C [Compound 260]
ALT enzyme activity (Karmen unit) compared to ALC0315 and SM-102 (Female BALB/c mice [2]): significantly lower ALT enzyme activity | Encapsulation efficiency [3]: 95.36% | Liver (fluorescence expression intensity) (Female BALB/c mice [4]): 9.60E+07 | Spleen (fluorescence expression intensity) (Female BALB/c mice [4]): 3.27E+06 | Total flux (fluorescence expression intensity) (Female BALB/c mice [4]): 4.11E+08 | (Spleen/Total Flux) * 100% (Female BALB/c mice [4]): 0.80% | Multiple of spleen delivery/total delivery to amino lipid compound 118 (Female BALB/c mice [4]): 2.34

CCCCCCC(CCCCCC)OC(=O)CCCCCCCCC(CCCCCCCCC(=O)OC(CCCCCC)CCCCCC)OC(=O)N(CCCCC(=O)OC(C)CC)CCCN(C)C (stereo not shown) [Compound 302]
Cellular immunity effect (IFN-γ Elispot) compared to ALC0315 (Female BALB/c mice [1]): better cellular immunity effect

CCCCCCC(CCCCCC)OC(=O)CCCCCCCCC(CCCCCCCCC(=O)OC(CCCCCC)CCCCCC)OC(=O)N(CCCN(C)C)CC(=O)OCCC [Compound 269]
Humoral immunity effect (IgG titer) compared to ALC0315 (Female BALB/c mice [5]): better humoral immunity effect
